Measured values as given in the NIST ThermoML archive (doi:10.1021/je300775u).
Several values for one entry are separate records, joined by “and”; a condition that tells them apart may be missing. Identical values can stand only once. ± gives the expanded uncertainty stated by the source.

What was measured:
[1] = xn = mol fraction of the nth substance listed; settings: 101 kPa, Liquid; for speed of sound: Pulse-echo method; for mass density: Vibrating tube method
[2] = 101.3 kPa, Liquid; for speed of sound: Pulse-echo method; for mass density: Vibrating tube method

SMILES | speed of sound ([1]; 293.15 K, x2 = 0) [m/s] | mass density ([1]; 293.15 K, x2 = 0) [kg/m3] | speed of sound ([1]; 298.15 K, x2 = 0) [m/s] | mass density ([1]; 298.15 K, x2 = 0) [kg/m3] | speed of sound ([1]; 303.15 K, x2 = 0) [m/s] | mass density ([1]; 303.15 K, x2 = 0) [kg/m3] | speed of sound ([1]; 308.15 K, x2 = 0) [m/s] | mass density ([1]; 308.15 K, x2 = 0) [kg/m3] | speed of sound ([1]; 313.15 K, x2 = 0) [m/s] | mass density ([1]; 313.15 K, x2 = 0) [kg/m3] | speed of sound ([2]; 293.15 K) | mass density ([2]; 293.15 K) [kg/m3] | speed of sound ([2]; 298.15 K) | mass density ([2]; 298.15 K) [kg/m3] | speed of sound ([2]; 303.15 K) | mass density ([2]; 303.15 K) [kg/m3] | speed of sound ([2]; 308.15 K) | mass density ([2]; 308.15 K) [kg/m3] | speed of sound ([2]; 313.15 K) | mass density ([2]; 313.15 K) [kg/m3] | further results
CCCCCCC [heptane] + ClC(Cl)(Cl)Br | 1152.6 ± 0.9 | 683.84 ± 0.18 | 1131 ± 0.9 | 679.6 ± 0.18 | 1109.6 ± 0.9 | 675.33 ± 0.18 | 1088.2 ± 0.9 | 671.04 ± 0.18 | 1067.1 ± 0.9 | 666.71 ± 0.18 | – | – | – | – | – | – | – | – | – | – | –
BrCBr [dibromomethane] + ClC(Cl)(Cl)Br | 961.8 ± 1.2 | 2491.67 ± 1.8 | 949.2 ± 1.2 | 2478.61 ± 1.8 | 936.6 ± 1.2 | 2465.53 ± 1.8 | 924 ± 1.2 | 2452.42 ± 1.8 | 911.4 ± 1.2 | 2439.26 ± 1.8 | – | – | – | – | – | – | – | – | – | – | –
BrCBr [dibromomethane] | – | – | – | – | – | – | – | – | – | – | 961.8 ± 1.2 m/s | 2491.67 ± 1.8 | 949.2 ± 1.2 m/s | 2478.61 ± 1.8 | 936.6 ± 1.2 m/s | 2465.53 ± 1.8 | 924 ± 1.2 m/s | 2452.42 ± 1.8 | 911.4 ± 1.2 m/s | 2439.26 ± 1.8 | –
ClC(Cl)(Cl)Br [bromotrichloromethane] + ClCBr | – | – | – | – | – | – | – | – | – | – | – | – | – | – | – | – | – | – | – | – | speed of sound ([1]; 293.15 K, x1 = 1): 917.1 ± 1.2 m/s; mass density ([1]; 293.15 K, x1 = 1): 2013.06 ± 1.2 kg/m3; speed of sound ([1]; 298.15 K, x1 = 1): 903.6 ± 1.2 m/s; mass density ([1]; 298.15 K, x1 = 1): 2002.14 ± 1.2 kg/m3; speed of sound ([1]; 303.15 K, x1 = 1): 890.2 ± 1.2 m/s; mass density ([1]; 303.15 K, x1 = 1): 1991.2 ± 1.2 kg/m3; speed of sound ([1]; 308.15 K, x1 = 1): 876.8 ± 1.2 m/s; mass density ([1]; 308.15 K, x1 = 1): 1980.24 ± 1.2 kg/m3; speed of sound ([1]; 313.15 K, x1 = 1): 863.6 ± 1.2 m/s; mass density ([1]; 313.15 K, x1 = 1): 1969.25 ± 1.2 kg/m3
ClC(Cl)(Cl)Br [bromotrichloromethane] | – | – | – | – | – | – | – | – | – | – | 917.1 ± 1.2 m/s | 2013.06 ± 1.2 | 903.6 ± 1.2 m/s | 2002.14 ± 1.2 | 890.2 ± 1.2 m/s | 1991.2 ± 1.2 | 876.8 ± 1.2 m/s | 1980.24 ± 1.2 | 863.6 ± 1.2 m/s | 1969.25 ± 1.2 | –
CCCCCCC [heptane] + BrCBr | 1152.2 ± 0.9 | 683.84 ± 0.18 | 1130.9 ± 0.9 | 679.6 ± 0.18 | 1109.1 ± 0.9 | 675.33 ± 0.18 | 1088.1 ± 0.9 | 671.04 ± 0.18 | 1066.9 ± 0.9 | 666.71 ± 0.18 | – | – | – | – | – | – | – | – | – | – | –
ClCBr [bromochloromethane] | – | – | – | – | – | – | – | – | – | – | 1001.2 ± 1.2 m/s | 1933.23 ± 1.1 | 986.1 ± 1.2 m/s | 1921.71 ± 1.1 | 971 ± 1.2 m/s | 1910.15 ± 1.1 | 955.9 ± 1.2 m/s | 1898.51 ± 1.1 | 940.8 ± 1.2 m/s | 1886.82 ± 1.1 | –
CCCCCCC [heptane] | – | – | – | – | – | – | – | – | – | – | 1152.6 ± 0.9 m/s and 1152.2 ± 0.9 m/s | 683.84 ± 0.18 | 1131 ± 0.9 m/s and 1130.9 ± 0.9 m/s | 679.6 ± 0.18 | 1109.6 ± 0.9 m/s and 1109.1 ± 0.9 m/s | 675.33 ± 0.18 | 1088.2 ± 0.9 m/s and 1088.1 ± 0.9 m/s | 671.04 ± 0.18 | 1067.1 ± 0.9 m/s and 1066.9 ± 0.9 m/s | 666.71 ± 0.18 | –
